The record followed here is patent US20050020482A1, “Methods for modulating gap junctions” (priority 2001, published 2005).

Experiment [1] has as its system gap junction function in IMR32. In kind it is cell-based. On the procedure:
The classical scrape loading test was used to monitor the function of gap junction channels. Briefly, a cut is performed with a fine needle in sub-confluent cell cultures (refer reverse phases micrograph 5B). The culture is then covered with a film of fluorescent dye Lucifer yellow which is not cell permeant. The dye however penetrates the wounded cells along the scrape. From these loaded cells the dye can only be transferred to neighbor cells through the gap junction channels. The number of cell rows that receive the dye after a given time (3 min) provides an estimation of the gap junction function. Primary antibodies specific to PKC isoforms alpha beta I and beta II were introduced individually or in combination (as shown) by endocytosis using a kit from Molecular Probe following the supplier instructions. Controls for the introduction of the specific antibodies were performed by fixing and permeabilizing the cells then staining them with a secondary antibody conjugated to Texas red (Johnson labs).
All documents referred to are incorporated herein by reference.

Experiment [2] concerns IMR32 neuroblastoma cells. The experiment can be described thus: Growth of IMR32 neuroblastoma cells in vitro (population size, Hoechst fluorometry). The note with it: for population size, percent of matching controls: 24 replica. Format: cell-based. Further details: population size, percent of matching controls: concentration or dose not given beside the values. On the procedure:
Legend: IMR32 neuroblastoma cells were seeded in 96 well plates at a density of 1000 cells per well. Treatments were as follows: Control cells are untreated and growing in a MEM-based proliferation medium. […] A2+RA treatment consisted of medium A2 supplemented with all trans retinoic acid (RA) 1 uM on day 2; A1+RA consist of RA supplementation 1 uM in the absence of the cAMP analog. The population size (24 replica per treatment) was determined by a procedure using Hoechst as a reagent and cytofluor (BioRad) fluorometer for measurement. The results are expressed as a percent of matching controls.

`Oc1ccc(-c2nc(-c3ccncc3)c(-c3ccc(F)cc3)[nH]2)cc1` [SB202190]: in experiment [1], the cell death entry is “died of apoptosis” and the gap junction function entry is listed as “Gap junction function resuming”.
`CC1=C(/C=C/C(C)=C/C=C/C(C)=C/C(=O)O)C(C)(C)CCC1` [all trans retinoic acid (RA), all trans retinoic acid]: the “population size, percent of matching controls” value in experiment [2] (day 1) came to 84%; in experiment [2] (day 2), 87%; in experiment [2] (day 3), 90%; in experiment [2] (day 4), 63%; in experiment [2] (day 5), 70%; in experiment [2] (day 6) it was 68%. The “effect on growth (in words)” value in experiment [2] (legend of Table 1) was “not very efficient in affecting growth”.
